Measured values as given in ChEMBL document CHEMBL1147973, “Ligand based virtual screening and biological evaluation of inhibitors of chorismate mutase (Rv1885c) from Mycobacterium tuberculosis H37Rv” (Bioorg Med Chem Lett, 2007).

The compounds below were run against T1, Secreted chorismate mutase (Mycobacterium tuberculosis, UniProt P9WIB9) (assay: Inhibition of chorismate mutase in Mycobacterium tuberculosis H37Rv strain).
T1 sequence (P9WIB9 whole entry): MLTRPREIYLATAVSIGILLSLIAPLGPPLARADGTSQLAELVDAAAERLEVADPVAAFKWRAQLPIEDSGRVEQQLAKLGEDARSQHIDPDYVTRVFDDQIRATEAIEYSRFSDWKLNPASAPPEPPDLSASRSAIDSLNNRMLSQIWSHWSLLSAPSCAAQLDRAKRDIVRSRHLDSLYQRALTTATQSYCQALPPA
For `COc1cc(/C=C(\C(=O)O)c2ccc(Cl)cc2)c([N+](=O)[O-])cc1OC`, the Ki was 17.7 µM. `CC(C)CC(NC(=O)C1CSC(c2ccccc2)N1C(=O)OC(C)(C)C)C(=O)O` (centres undefined) was tested, and the Ki was 21.1 µM. In the case of `CNc1ccc(C(=O)OC)cc1[N+](=O)[O-]`, the Ki is reported as 28.8 µM. Compound `COc1ccc(CCNc2c([N+](=O)[O-])cc(C(=O)O)cc2S(N)(=O)=O)cc1OC` has a Ki of 5.7 µM.
